Measurements as given in patent US9949981B2, “Compositions and methods for treating proliferation disorders” (Arqule, Inc., priority 2014, dated 2018).
Where two headings read alike, the source gives them in different places. Blank lines part the entries; values can stand above or below the compound they belong to.

Tests used:
AKT1 = AKT1 (Homo sapiens, UniProt P31749); experiment: Inactive AKT Alpha Screen Assay
[1] = system: pAKT in KU-19-19 (E17K) mutant bladder cancer cells; experiment: pAKT in KU-19-19 cells, two hour treatment; details: normal medium, 2 hours, FIGS. 17 and 18
[2] = system: pPRAS40 in KU-19-19 (E17K) mutant bladder cancer cells; experiment: pPRAS40 in KU-19-19 cells, two hour treatment; details: normal medium, 2 hours, FIGS. 17 and 18
[3] = system: Proteus single cell clones (A6B AKT1 p.E17K positive and E8F9A mutation negative cells); experiment: Viability of Proteus single cell clones; type: cell-based, human; details: presence or absence of serum; 24 hours serum starvation; 72 hours; FIGS. 5A and 5B
[4] = system: S6 phosphorylation in Proteus single cell clones; details: F6B mutation positive and H4A mutation negative clones; with or without serum; FIGS. 16A and 16B
[5] = system: AKT1 phosphorylation in Proteus single cell clones; details: FIG. 15

Chain of AKT1 (P31749 whole entry): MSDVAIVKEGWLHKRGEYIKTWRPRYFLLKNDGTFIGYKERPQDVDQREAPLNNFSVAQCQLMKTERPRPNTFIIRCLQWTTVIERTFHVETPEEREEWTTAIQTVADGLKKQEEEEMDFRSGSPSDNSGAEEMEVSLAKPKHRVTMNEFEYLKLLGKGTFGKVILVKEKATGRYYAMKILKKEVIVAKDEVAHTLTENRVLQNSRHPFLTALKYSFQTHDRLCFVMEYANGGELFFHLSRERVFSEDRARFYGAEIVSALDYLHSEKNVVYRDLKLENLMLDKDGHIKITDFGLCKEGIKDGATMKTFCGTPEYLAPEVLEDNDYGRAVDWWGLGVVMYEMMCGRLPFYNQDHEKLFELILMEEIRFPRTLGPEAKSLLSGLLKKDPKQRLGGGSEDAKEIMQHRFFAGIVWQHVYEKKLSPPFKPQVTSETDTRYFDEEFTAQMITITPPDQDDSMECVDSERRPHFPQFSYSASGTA

IC50 (AKT1): 2.2 nM
SMILES: Nc1ncccc1-c1nc2ccc(-c3cccc(N4CCOCC4)c3)nc2n1-c1ccc(C2(N)CCC2)cc1 [Compound 2, 3-(3-(4-(1-aminocyclobutyl)phenyl)-5-(3-morpholinophenyl)-3H-imidazo[4,5-b]pyridin-2-yl)pyridin-2-amine]

SMILES: NC1(c2ccc(-c3nc4ccn5c(=O)[nH]nc5c4cc3-c3ccccc3)cc2)CCC1 [MK-2206, reference compound]
pAKT [1]: inhibit
pPRAS40 [2]: inhibit

SMILES: CO[C@H]1C[C@@H]2CC[C@@H](C)[C@@](O)(O2)C(=O)C(=O)N2CCCC[C@H]2C(=O)O[C@H]([C@H](C)C[C@@H]2CC[C@@H](OCCO)[C@H](OC)C2)CC(=O)[C@H](C)/C=C(\C)[C@@H](O)[C@@H](OC)C(=O)[C@H](C)C[C@H](C)/C=C/C=C/C=C/1C [everolimus]
viability of Proteus single cell clones [3]: mutation positive cells are more sensitive than control cells
pS6 levels [4]: greatly decreases pS6 levels
pAKT/AKT ratio ([5]; F6B AKT1 p.E17K mutant cells in serum free conditions): decreases the pAKT/AKT ratio
pAKT/AKT ratio ([5]; mutant negative cells (H4A) or mutant cells gown in serum free conditions): has no effect or increases the ratio
